Data set [1] concerns oestrogen receptors (ERs). The settings on record: cited from earlier work.
Data set [2] concerns adult male mouse offspring. The settings on record: in utero exposure to 2 μg/kg/day or 20 μg/kg/day; cited from earlier work.
A further data set addresses T1, ERα (Homo sapiens, UniProt P03372).
T1 construct: expressed in transfected cells; host or cells: HeLa cells
T1 sequence (P03372 1-595): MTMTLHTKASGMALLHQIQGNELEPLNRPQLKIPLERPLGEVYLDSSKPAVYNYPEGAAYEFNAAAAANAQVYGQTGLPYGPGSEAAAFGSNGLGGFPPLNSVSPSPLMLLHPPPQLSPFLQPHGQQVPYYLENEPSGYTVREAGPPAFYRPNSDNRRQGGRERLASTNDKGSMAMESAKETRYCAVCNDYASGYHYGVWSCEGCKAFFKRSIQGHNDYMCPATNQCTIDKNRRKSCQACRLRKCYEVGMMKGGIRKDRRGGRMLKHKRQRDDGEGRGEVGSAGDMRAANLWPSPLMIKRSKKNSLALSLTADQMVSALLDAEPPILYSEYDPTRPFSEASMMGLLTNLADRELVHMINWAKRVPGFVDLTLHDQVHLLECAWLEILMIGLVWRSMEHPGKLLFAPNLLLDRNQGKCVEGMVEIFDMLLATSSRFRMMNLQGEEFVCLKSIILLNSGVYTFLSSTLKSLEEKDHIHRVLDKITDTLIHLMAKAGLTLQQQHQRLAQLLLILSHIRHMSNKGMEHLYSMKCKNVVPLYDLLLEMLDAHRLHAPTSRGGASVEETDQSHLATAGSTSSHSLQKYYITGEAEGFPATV
The data set can be described thus: Luciferase-reporter assay for agonist activity in transiently transfected HeLa cells. The class given is cell-based. The settings on record: reporter-gene assay, 0.1-10 μM. How it is done: HeLa cells were maintained in Eagle’s minimum essential medium (MEM; Nissui Pharmaceutical Co., Ltd, Tokyo, Japan) supplemented with 10% (v/v) foetal bovine serum treated with dextran-coated charcoal at 37 °C under 5% CO2. To analyse the agonist activity, HeLa cells were incubated at a density of 5 × 10^5 cells per 60-mm dish for 24 h, followed by transfection of 3 μg of the reporter plasmid (3 × ERE/pGL4.23) and 1 μg of the ERα expression plasmid (ERα/pcDNA3.1) using Lipofectamine LTX reagent (Thermo Fisher Scientific, Waltham, MA, USA) according to the manufacturer’s instructions. After 24 h, cells were harvested, suspended in Eagle’s MEM, and seeded into 96-well plates at 5 × 10^4 cells/well, followed by treatment with a series of the test compounds diluted with 1% bovine serum albumin (BSA)/PBS (v/v) to prepare different concentrations (0–10 μM). After a 24-h incubation, luciferase activity was measured using a Luciferase Assay system (Promega, Madison, WI, USA) according to the manufacturer’s instructions. […] Cells treated only with 1% BSA/PBS were used as a vehicle control. Each assay was performed in triplicate and repeated at least three times.

As for `CC(C)(c1ccc(O)cc1)c1ccc(O)cc1` [compound 21, bisphenol A], the “affinity for ERs weaker than 17β-oestradiol (E2)” value in data set [1] is > 1,000 fold. Further, in data set [2], the “effect on prostate in adult male offspring (in words)” value is “increases prostate size and weight”. Besides, the “ERα agonist / transcriptional activity (in words)” value at ERα was “apparent agonistic activity”.

These data come from paper PMC6616570, “Discovery of novel oestrogen receptor α agonists and antagonists by screening a revisited privileged structure moiety for nuclear receptors” (Scientific Reports, 2019).
